Reference: patent publication US20030198614A1, “Hair growers” (priority 2000, published 2003)

Columns and labels:
[1] = Hair regrowth inducing effect test by cell cluster-accompanied culture method; assay type: cell-based; conditions: Homo sapiens, Human dermal papilla cell, 48 h, 2 days, Alamer Blue fluorescence, relative to negative control, read-out: Relative respiration level (%)
Description: The hair regrowth inducing effect was evaluated using, as an index, an increase in respiration level of a cell cluster formed under the coexistence of a normal human outer root sheath cell and a normal human dermal papilla cell.
Normal human dermal papilla cell (DP): A DP obtained by a primary culture from a head hair was subcultured three times in a 10% FBS-supplemented DMEM medium in a 75 cm^2 incubation flask coated with Type I collagen, and then stored while being frozen in a liquid nitrogen using a cell cryopreservation solution (Cellbanker II: DIA-IATRON).
Normal human outer root sheath cell (ORS): An ORS obtained by a primary culture from a head hair was subcultured three times in a SFM medium in a 75 cm^2 incubation flask coated with Type I collagen, and then stored while being frozen in a liquid nitrogen using Cellbanker II.
The DP and ORS cells stored as frozen were thawed, washed with an ice-cooled SFM medium, dispersed in the same medium and subjected to an accurate cell density measurement using a hemocytometer. Each cell density was adjusted at 5×10^4 cells/ml accurately, and the cell dispersions in equal volumes were combined under cooling with ice. 80 μl aliquots of the combined cell suspending SFM medium were inoculated into individual wells of a 96-well microplate (Sumilon celltight, spheroid 96U plate), and incubated for 2 days. The cell count in a single well upon inoculation was 2,000 cells for each of DP and ORS, thus 4,000 cells in total.
Each 80 μl of a test material-supplemented William's E(+) medium (William's E medium supplemented with 10 μg/ml transferrin, 10 ng/ml hydrocortisone, 10 μg/ml insulin and 10 ng/ml sodium selenite) was added to each well and incubated further for 2 days.
The test material-supplemented William's E(+) medium added to each well was prepared by dissolving the test material in ethanol at a concentration of 10 mM or 100 mM and adding to William's E(+) medium at 0.2% each. Accordingly, the final concentration of the test material in each well was 10 μM or 100 μM, and each final concentration of ethanol was 0.1%.
As a negative control, 80 μl of William's E(+) medium containing 0.2% ethanol was added (final concentration of ethanol was 0.1%).
Alamer Blue, SFM medium and William's E(+) medium were mixed in 2:1:1 ratio, warmed at 37° C. and then 40 μl aliquots were added to individual wells and allowed to react for 6 hours at 37° C. After completion of the reaction, 100 μl aliquots were taken from individual wells, and transferred to a white 96-well plate for fluorescence measurement (Opaque Plate).
A fluorometer (Labsystems Fluoroskan II) was used at the excitation wavelength of 544 nm and the fluorescent wavelength of 590 nm to measure the fluorescence intensity of each well, from which the fluorescent intensity of a cell-free reaction mixture (i.e., the reaction mixture treated similarly using a cell-free SFM medium) was subtracted to obtain a respiration level under each condition. From thus obtained respiration level, a relative respiration level(%) was calculated according to the following equation.
Relative respiration level(%)={Respiration level (test material)}/{Respiration level (negative control)}×100

[2] = system: telogen hair roots of male subjects; assay: Trichogram test; assay type: in vivo, human; conditions: 50 nM in 70% ethanol, 2 ml twice a day on scalp for 6 months, 10 male subjects
Description: As test materials, Compound 1 and Compound 2 were employed. Each test material was dissolved in 70% ethanol similarly to Experiment 1 to obtain a sample (test material concentration: 50 nM).
The hair roots of hairs pulled out before and after the use of each sample were examined by a microscope to determine the telogen hair root count on the basis of the hair root morphology, and the increase or decrease in the rate was employed as an index for evaluating the hair growth promoting effect.
Specifically, each sample was applied onto the scalp of each of 10 male subjects twice a day in a 2 ml aliquot each time continuously for 6 months. 100 hairs per subject were pulled out immediately before the application and immediately after completion of 6-month application to count the telogen hair roots. The rate (%) of the number of the subjects whose telogen hair root after the application was decreased by 20% or more, changed by ±20% or increased by 20% or more with respect to that before the application was calculated.

[3] = system: cultured human trichoepithelial cell; assay: Trichoepithelial cell growth promoting effect test; assay type: cell-based; conditions: 1.0×10^-6 mol/L, 2 days, Alamer Blue; negative control = 0, positive control (insulin + hydrocortisone) = 1
Description: According to the method described in JP-A-2000-63242, a cultured trichoepithelial cell of a human scalp was used to measure a trichoepithelial cell growth promoting effect.
From a human scalp obtained as a by-product of a surgical operation, a hair follicle at a anagen stage in a hair cycle was isolated mechanically under the observation by a stereoscopic microscope. This hair follicle at a anagen stage was treated in a Dulbecco's modified MEM (DMEM) supplemented with 1000 U/ml dispase and 0.2% collagenase for 30 minutes at 37° C. Adipose tissues, connective tissue root sheath and dermal papilla were removed therefrom using the tip of a syringe needle and the hair follicle was treated in a phosphate buffer containing 0.05% EDTA for 5 minutes at 37° C.
Subsequently, the hair follicle was placed on a culture dish coated with Type I collagen, and incubated in a KGM medium (serum-free keratinocyte growth medium). After incubation for 4 to 5 days, the culture medium was exchanged upon ensuring the adhesion of the hair follicle on the bottom face of the culture dish and the growth of the trichoepithelial cell, and thereafter the culture medium was exchanged every 2 days.
After the cell thus proliferated was treated in a phosphate buffer containing 0.05% trypsin and 0.02% EDTA for 5 minutes at 37° C., the reaction was quenched using an equal volume of 0.1% trypsin inhibitor and the cell was recovered by centrifugation (800×g, 5 minutes).
Subsequently, the cell was suspended in the serum-free culture medium described above, and inoculated at the density of 5000 cells/cm^2 onto a culture dish coated with Type I collagen. The culture medium was exchanged every 2 days until the cell became subconfluent. After treating the cell again in the phosphate buffer containing 0.05% trypsin and 0.02% EDTA for 5 minutes at 37° C., the reaction was quenched using an equal volume of 0.1% trypsin inhibitor and the cell was recovered by centrifugation (800×g, 5 minutes). The human trichoepithelial cell thus obtained was adjusted at the concentration of 100,000 cells/ml with a cell cryopreservation solution (Cellbanker: DIA-IATRON) added thereto, and dispensed into each freezing tube as a 100,000 cells (1 ml), which was then stored as being frozen. The cell counts described above were calculated using a hemocytometer.
After inoculating the trichoepithelial cell obtained in the step described above into a culture flask, the cell was treated with a phosphate buffer containing 0.25% trypsin and 0.02% EDTA. The reaction was quenched with 0.1% trypsin inhibitor, and then the mixture was centrifuged at 1,500 rpm for 5 minutes. The supernatant was removed, and the precipitated cell pellet was combined with a KGM medium to prepare a cell suspension.
The cell suspension in the KGM medium was inoculated to a Type I collager-coated 96-well microplate (Falcon) at 3,000 cells (0.2 ml)/well and allowed to stand for about 20 minutes at room temperature until the cell went down onto the bottom. Then, the cell was cultured for 1 day in an incubator in the presence of 5% CO2 at 37° C., whereby obtaining an intended cultured human trichoepithelial cell.
A test material and DMSO were added to a KGM medium at the final concentrations of 1.0×10^−6 mol/L and 0.1%, respectively.
Negative control: DMSO was added to a KGM medium at the final concentration of 0.1%.
Positive control: Insulin and hydrocortisone were dissolved in DMSO, which was then added to a KGM medium. The final concentrations of insulin, hydrocortisone and DMSO were 5 μg/ml, 0.5 μg/ml and 0.1%, respectively.
The KMG medium in the 96-well microplate employed for preparing the cultured human trichoepithelial cell in Step A described above was exchanged with a test material-supplemented medium or a control medium (200 μl/well), and the incubation was continued for 2 days in the presence of 5% CO2 at 37° C. […]

[4] = system: C3H/He mice, whose hair cycle was at the telogen stage; assay: Hair regrowth effect test; assay type: in vivo; conditions: 0.1 ml once a day on shaved back, after 24 days, average of 6 mice
Description: The Compounds 1 to 5 described above were used as test materials. Each test material was dissolved in 70% ethanol aqueous solution and the solution was subjected to the application as a sample (test material concentration: 50 nM and 100 nM). 70% Ethanol was also used as a control sample.
The hair regrowth effect test was performed using C3H/He mice, whose hair cycle was at the telogen stage according to the method of Ogawa et. al. (Normal and Abnormal Epidermal Differentiation, Edited by M. Seiji and I. A. Bernstein, Pages 159-170, 1982, Todai Shuppan).
Namely, 6 mice were used in a group and their hair of the regions of back was shaved by hair clippers. 0.1 ml of sample was applied on the shaved regions once a day. After 24 days, the hair regrowth area was measured and the hair regrowth area rate was calculated based on the hair regrowth area with respect to the shaved area. The results are shown in Table 1 (expressed by average values).

[5] = system: human hair follicle in the anagen stage; assay: Investigation of hair shaft elongation (organ culture of human hair follicle); assay type: cell-based; conditions: 1.0×10^-5 mol/L, 5-day incubation, 9 hair follicles per group
Description: A hair follicle in the anagen stage was isolated from a human scalp under a stereoscopic microscope observation, washed with “a medium prepared by adding penicillin, streptomycin and fungizone to Williams E medium (Gibco)” (hereinafter referred to as a (−) medium) and then examined for its length.
A medium obtained by supplementing the (−) medium further with 10 ng/ml hydrocortisone, 10 μg/ml insulin, 10 ng/ml sodium selenite and 10 μg/ml transferring (hereinafter ter referred to as a (+) medium) was dispensed in an aliquot of 1 ml per well into a 24-well microplate. The hair follicle described above was precipitated therein and incubated overnight at 37° C. in the presence of 5% CO2 (preincubation).
The elongation of the hair shaft in a hair follicle was determined by inspecting the microplate described above visually using an inverted microscope with a micrometer attached thereto.
A DMSO solution of a test material was added to a (−) medium for preparation. The final concentrations of the test material and DMSO were 1.0×10^−5 mol/L and 0.1%, respectively.
Only DMSO was added to a (−) medium at the final concentration of 0.1% for preparation.
The culture medium of the hair follicle groups described above was replaced each with the test materialcontaining medium or negative control medium, and the incubation was continued further for 5 days at 37° C. in the presence of 5% CO2. The length of each hair after 5-day incubation was measured, and the means were compared with each other.

## CCCCCCCCCCCCCCCCOC(CO)COC (stereo not shown) [Compound 1, 2-Hexadecyloxy-3-methoxy-1-propanol]
[1]
  activity at 10 µM: 139%
  activity at 100 µM: 157%
[2]
  Rate of telogen hair root: 20% or more decrease (rate of subjects): 70%
  Rate of telogen hair root: 20% or more increse (rate of subjects): 0%
  Rate of telogen hair root: ±20% (rate of subjects): 30%
[3]
  Cell growth promoting index: 1.3
[4]; 50 nM in 70% ethanol
  Hair regrowth area rate: 70%
[4]; 100 nM in 70% ethanol
  Hair regrowth area rate: 93%
[5]
  Mean of hair shaft elongation: 1.7 mm

## CCCCCCCCCCCCCCCCOCC(O)COC (stereo not shown) [Compound 2, 1-Hexadecyloxy-3-methoxy-2-propanol]
[1]
  activity at 10 µM: 108%
  activity at 100 µM: 122%
[2]
  Rate of telogen hair root: 20% or more decrease (rate of subjects): 60%
  Rate of telogen hair root: 20% or more increse (rate of subjects): 10%
  Rate of telogen hair root: ±20% (rate of subjects): 30%
[3]
  Cell growth promoting index: 1.5
[4]; 50 nM in 70% ethanol
  Hair regrowth area rate: 65%
[4]; 100 nM in 70% ethanol
  Hair regrowth area rate: 88%
[5]
  Mean of hair shaft elongation: 1.5 mm

## CCCCCCCCCCCCCCCCOCCCO [Compound 3, 3-Hexadecyloxy-1-propanol]
[1]
  activity at 10 µM: 106%
  activity at 100 µM: 108%
[3]
  Cell growth promoting index: 1.4
[4]; 50 nM in 70% ethanol
  Hair regrowth area rate: 15%
[4]; 100 nM in 70% ethanol
  Hair regrowth area rate: 74%
[5]
  Mean of hair shaft elongation: 1.6 mm

## CCCCCCCCCCCCCCCCOCC(COC)OC (stereo not shown) [Compound 4, 1-(2,3-Dimethoxypropoxy)hexadecane]
[1]
  activity at 10 µM: 127%
  activity at 100 µM: 134%
[3]
  Cell growth promoting index: 1.4
[4]; 50 nM in 70% ethanol
  Hair regrowth area rate: 68%
[4]; 100 nM in 70% ethanol
  Hair regrowth area rate: 78%
[5]
  Mean of hair shaft elongation: 1.9 mm

## CCCCCCCCCCCCCCCCCCC(CO)OC (stereo not shown) [Compound 5, 2-Methoxy-1-eicosanol]
[1]
  activity at 10 µM: 124%
  activity at 100 µM: 130%
[3]
  Cell growth promoting index: 1.2
[4]; 50 nM in 70% ethanol
  Hair regrowth area rate: 70%
[4]; 100 nM in 70% ethanol
  Hair regrowth area rate: 76%
[5]
  Mean of hair shaft elongation: 1.4 mm

## CCCCCCCCCCCCCCCCCC(=O)OCC(CO)OC (stereo not shown) [Compound 6, 3-Hydroxy-2-methoxypropyl stearate]
[1]
  activity at 10 µM: 101%
  activity at 100 µM: 102%
[3]
  Cell growth promoting index: 1.3
[5]
  Mean of hair shaft elongation: 1.7 mm

## CCCCCCCCCCCCCCCCOC(CO)CO [Compound 7, 2-Hexadecyloxy-1,3-propanediol]
[1]
  activity at 10 µM: 122%
  activity at 100 µM: 129%
[3]
  Cell growth promoting index: 1.5
[5]
  Mean of hair shaft elongation: 1.2 mm

## CCCCCCCCCCCCCCCCCCOCC(C)(C)CO [Compound 8, 2,2-Dimethyl-3-octadecyloxy-1-propanol]
[1]
  activity at 10 µM: 106%
  activity at 100 µM: 112%
[3]
  Cell growth promoting index: 1.2
[5]
  Mean of hair shaft elongation: 1.7 mm

## CCCCCCCCCCCCCCCCCCC(O)CO (stereo not shown) [Compound 9, 1,2-eicosanediol]
[1]
  activity at 10 µM: 130%
  activity at 100 µM: 132%
[3]
  Cell growth promoting index: 1.2
[5]
  Mean of hair shaft elongation: 1.5 mm
